Test results published in US11827917B1, “Methods for the conversion of fermentable sugars to ethanol” (Colorado State University Research Foundation, priority 2020, dated 2023).
Marks after values point to notes of the source that are not given here.

Tests used:
[1] = system: S. cerevisiae JAY 270; assay: Growth test in liquid YNB medium, low/high nitrogen, serum bottles; format: cell-based, Saccharomyces cerevisiae; conditions: 40, 200, 1000 mg/L; low and high nitrogen media
Experimental: A second set of tests was performed in a defined liquid medium, Yeast Nitrogen Base with Glucose (YNB), containing (NH4)2SO4 at either low (1 mM) or high (10 mM) nitrogen content. […] All serum bottles were incubated in a shaker at 30° C. and 150 RPM. Each treatment was performed in biological duplicate. Samples were collected at 0, 5, and 10 hours.

[2] = system: S. cerevisiae JAY 270; assay: Serum-bottle cultivation in YPD: biomass, glycerol, ethanol yields; format: cell-based, Saccharomyces cerevisiae
Experimental: Procedure: Cultivations in serum bottles were used to determine the effect of the best-performing screened chemicals on the ethanol yield. S. cerevisiae JAY 270 was pre-cultured in 100 mL of YPD medium in 200-mL serum bottles overnight in a shaker at 30° C. and 200 rpm. The precultured yeast cells were collected and washed twice as described above. The cell pellet was resuspended in about 10 mL of 0.8% (w/v) NaCl and the cell concentration was estimated as OD600. TyrOH, PheOH, and TrpOH were added to 30 mL of YPD medium in 100-mL serum bottles at 0.05% and 0.2% respectively. The same amount of DMSO was added to YPD medium to serve as the control for TrpOH and TyrOH treatments. The bottles were inoculated with the prepared yeast cells to obtain an initial cell concentration of OD600=0.2. The serum bottles were sealed and cultured in a shaker at 30° C. and 200 rpm for 24 h. Each condition had three biological replicates.
(§1) Analytical methods: Cell growth was evaluated by monitoring OD600 and cell dry mass concentration. For dry mass measurements, 1.0 mL of culture was transferred to a pre-dried and pre-weighed 2-mL centrifuge tube. The tubes were centrifuged for 10 min at 14000 rpm using a microcentrifuge, and then the cell pellets were dried in an oven for 3 days at 65° C. The cell dry mass was determined by subtracting the initial tube mass from the dried mass of tube with cells. The concentrations of glucose, ethanol, and glycerol were measured via HPLC (Shimadzu LC20A series) outfitted with a refractive index detector and using an Aminex HPX-87H (300×7.8 mm) organic acid column and Cation H+ guard cartridge (Bio Rad Laboratories, Hercules, CA). The column was maintained at 65° C. and the mobile phase was 5 mM sulfuric acid with a flow rate of 0.6 mL/min. Standard compound solutions were used to calibrate the HPLC. Each sample was analyzed three times by HPLC.

[3] = system: S. kudriavzezii JAY 1503; assay: Serum-bottle cultivation in YPD, different yeast strains; format: cell-based; conditions: 0.2%
Experimental: as §1
(§2) Procedure: Seven yeast strains (S. cerevisiae ATCC 26603, S. cerevisiae JAY 238, S. cerevisiae JAY 240, S. cerevisiae JAY 241, S. paradoxus JAY 1502, S. kudriavzezii JAY 1503, and S. mikatae JAY 1504) were pre-cultured in 30 mL of YPD medium in 100 mL serum bottle overnight in a shaker at 30° C. and 200 rpm. The precultured yeast cells of each strains were collected and washed twice. Finally, the cell pellet was resuspended in about 10 mL 0.8% (w/v) NaCl and the OD600 measured. TyrOH, PheOH, and TrpOH were added to 30 mL of YPD medium in 100-mL serum bottles at 0.2% (w/v) respectively. The same amount of DMSO was added in YPD medium and served as control to the TrpOH and TyrOH treatments. The prepared yeast cells were added to obtain the initial cell concentration at OD600=0.2. The serum bottles were sealed and cultured in a shaker at 30° C. and 200 rpm for 24 h. There were three biological replicates for each treatment.

[4] = system: S. mikatae JAY 1504; assay: as above; format: cell-based; conditions: 0.2%
Experimental: as §1, §2

[5] = system: S. paradoxus JAY 1502; assay: as above; format: cell-based; conditions: 0.2%
Experimental: as §1, §2

[6] = 0.05% (w/v), YPD, serum bottles
[7] = S. kudriavzezii JAY 1503, YPD (Table 9B)
[8] = S. mikatae JAY 1504, YPD (Table 9B)
[9] = S. paradoxus JAY 1502, YPD (Table 9B)

## OCCc1ccc(O)cc1 [TyrOH, Tyrosol]
[1]
  Inhibitory effect on yeast cell growth in liquid YNB medium: inhibitory at 1000 mg/L in both media, but not at 40 and 200 mg/L
[2]; [6]
  Biomass Yield: 0.095 + 0.001 g/g
  Biomass yield % change vs. control: −5%
  EtOH yield: 0.38 ± 0.01 g/g
  EtOH yield % change vs. control: 0.8%
  Glycerol yield: 0.031 ± 0.001 g/g
  Glycerol yield % change vs. control: −9%
[2]; 0.05%, YPD, serum bottles
  Biomass yield vs. reference: −5.0%
  Ethanol yield: 0.38 ± 0.01 g/g
  Ethanol yield vs. reference: 0.8%
  Glycerol yield: 0.031 ± 0.001 g/g
  Glycerol yield vs. reference: −9.0%
  OD600: 3.66
[2]; 0.2%
  Effect on yeast cell growth: reduced yeast cell growth
[2]; 0.2% (w/v), YPD, serum bottles
  Biomass Yield: 0.085 + 0.003 g/g
  Biomass yield % change vs. control: −15* %
  EtOH yield: 0.40 ± 0.00 g/g
  EtOH yield % change vs. control: 6.9* %
  Glycerol yield: 0.027 ± 0.000 g/g
  Glycerol yield % change vs. control: −20* %
[2]; 0.2%, YPD, serum bottles
  Biomass yield vs. reference: −15.3%
  Effect on ethanol yield: increased the ethanol yield significantly
  Ethanol yield: 0.40 ± 0.00 g/g
  Ethanol yield vs. reference: 6.9%
  Glycerol yield: 0.027 ± 0.000 g/g
  Glycerol yield vs. reference: −19.9%
  OD600: 3.27
[3]; S. kudriavzezii JAY 1503
  Biomass Yield: 0.029 ± 0.000 g/g
  Biomass yield % change vs. control: −35* %
  EtOH yield: 0.388 ± 0.000 g/g
  EtOH yield % change vs. control: +7.8* %
  Glycerol yield: 0.056 ± 0.001 g/g
  Glycerol yield % change vs. control: +8.1%
[3]; S. kudriavzezii JAY 1503, YPD
  DCW: 2.10 mg
  DCW Δ vs. ref: 82.4%
  OD600: 0.82
  OD600 Δ vs. ref: 52.4%
[3]; [7]
  Biomass Yield: 0.029 + 0.000 g/g
  Biomass yield Δ vs. ref: −35.1%
  Ethanol yield: 0.388 ± 0.000 g/g
  Ethanol yield Δ vs. ref: 7.8%
  Glycerol yield: 0.056 ± 0.001 g/g
  Glycerol yield Δ vs. ref: 8.07%
[4]; S. mikatae JAY 1504
  Biomass Yield: 0.052 ± 0.000 g/g
  Biomass yield % change vs. control: −20* %
  EtOH yield: 0.359 ± 0.042 g/g
  EtOH yield % change vs. control: +6.7* %
  Glycerol yield: 0.036 ± 0.001 g/g
  Glycerol yield % change vs. control: −24* %
[4]; S. mikatae JAY 1504, YPD
  DCW: 2.65 mg
  DCW Δ vs. ref: 79.1%
  OD600: 1.75
  OD600 Δ vs. ref: 77.3%
[4]; [8]
  Biomass Yield: 0.052 + 0.000 g/g
  Biomass yield Δ vs. ref: −20.1%
  Ethanol yield: 0.359 ± 0.042 g/g
  Ethanol yield Δ vs. ref: 6.7%
  Glycerol yield: 0.036 ± 0.001 g/g
  Glycerol yield Δ vs. ref: −23.65%
[5]; S. paradoxus JAY 1502
  Biomass Yield: 0.055 ± 0.000 g/g
  Biomass yield % change vs. control: −15* %
  EtOH yield: 0.410 ± 0.014 g/g
  Glycerol yield: 0.041 ± 0.001 g/g
  Glycerol yield % change vs. control: −9.9%
[5]; S. paradoxus JAY 1502, YPD
  DCW: 2.15 mg
  DCW Δ vs. ref: 81.1%
  OD600: 1.90
  OD600 Δ vs. ref: 85.5%
[5]; [9]
  Biomass Yield: 0.055 + 0.000 g/g
  Biomass yield Δ vs. ref: −15.4%
  Ethanol yield: 0.410 ± 0.014 g/g
  Ethanol yield Δ vs. ref: 5.4%
  Glycerol yield: 0.041 ± 0.001 g/g
  Glycerol yield Δ vs. ref: −9.89%
